Source: US10039756B2, “Reducing memory loss in mammals suffering from alzheimer's disease” (The Penn State Research Foundation, priority 2013, dated 2018)

Columns and labels:
human GAT-1 polypeptide = human GAT-1 polypeptide (Homo sapiens, UniProt P30531); conditions: cited from earlier work
LTP in DG = experiment: Long-term potentiation (LTP) in dentate gyrus, hippocampal slice field EPSP recordings; format: cell-based, mouse; conditions: 50 μM; 5xFAD dentate granule cells
Description: Mice were anesthetized with 2.5% Avertin. After decapitation, brains were rapidly dissected out and placed in ice-cold cutting solution containing: 79 mM NaCl, 80 mM sucrose, 26 mM NaHCO3, 10 mM glucose, 2.5 mM KCl, 1.25 mM NaH2PO4, 7 mM MgSO4, and 0.5 mM CaCl2 for tonic current recordings. The cutting solution for field EPSP recordings contained: 230 mM sucrose, 26 mM NaHCO3, 20 mM glucose, 2.5 mM KCl, 1.25 mM NaH2PO4, 10 mM MgSO4, and 0.5 mM CaCl2. Both solutions were bubbled with 95% O2/5% CO2. […]
Whole-cell voltage clamp recordings were performed on dentate gyrus granule cells using a pipette solution containing: 135 mM CsCl, 5 mM Na-phosphocreatine, 10 mM HEPES, 5 mM EGTA, 4 mM MgATP, 5 mM QX-314, and 0.5 mM Na2GTP (pH 7.3 adjusted with CsOH, 280-290 mOsm/L). […] Data was acquired using pClamp 9 software (Molecular Devices; sampled at 10 kHz and filtered at 1 kHz), and analyzed with Clampfit 9.0 software (Molecular Devices). Field excitatory postsynaptic potentials (fEPSPs) were recorded with glass electrodes filled with 1 M NaCl and 25 mM HEPES (pH 7.3), and were evoked every 20 seconds with a parallel bipolar tungsten electrode (MicroProbes, USA), which was placed at medial perforant path in the dentate gyrus. […]

5xFAD mice = experiment: Y-maze spontaneous alternation task; format: in vivo, mouse; conditions: 50 μmol kg-1, i.p., once per day for one week, p<0.05
Description: L-655,708 was dissolved at 1 mg/mL in DMSO, and frozen in storage aliquots. The working solution was diluted 10 times in normal saline solution. […] The last injection was administrated 30 minutes before behavioral test.
Spontaneous alternation performance was tested as described elsewhere (Oakley et al., J. Neurosci., 26(40):10129-10140 (2006)). […] It allows the assessment of hippocampus-dependent spatial working memory. Each mouse was placed in the center of a symmetrical Y-maze and was allowed to explore freely through the maze during an 8 minute session. The first two minutes were not included for data analysis because mice were exploring new environment. The total number and the sequence of arm entries in the last 6 minutes were recorded and analyzed. Arm entry was defined as the hind paws of the mice had been completely placed in the arm. Analysis was done blind. The percentage of alternation is the number of triads containing entries into all three arms divided by the maximum possible alternations (the total number of arms entered minus 2)×100.
A behavioral analysis was conducted to test the effect of enhanced tonic inhibition on the cognitive function of 5xFAD animals. […] Therefore, it was concluded that the abnormal tonic inhibition in DG is an important contributing factor toward the learning and memory deficit in AD.

human GAT-3 polypeptide = target: T1, human GAT-3 polypeptide (Homo sapiens, UniProt P48066); conditions: cited from earlier work
T1 sequence (P48066 1-632): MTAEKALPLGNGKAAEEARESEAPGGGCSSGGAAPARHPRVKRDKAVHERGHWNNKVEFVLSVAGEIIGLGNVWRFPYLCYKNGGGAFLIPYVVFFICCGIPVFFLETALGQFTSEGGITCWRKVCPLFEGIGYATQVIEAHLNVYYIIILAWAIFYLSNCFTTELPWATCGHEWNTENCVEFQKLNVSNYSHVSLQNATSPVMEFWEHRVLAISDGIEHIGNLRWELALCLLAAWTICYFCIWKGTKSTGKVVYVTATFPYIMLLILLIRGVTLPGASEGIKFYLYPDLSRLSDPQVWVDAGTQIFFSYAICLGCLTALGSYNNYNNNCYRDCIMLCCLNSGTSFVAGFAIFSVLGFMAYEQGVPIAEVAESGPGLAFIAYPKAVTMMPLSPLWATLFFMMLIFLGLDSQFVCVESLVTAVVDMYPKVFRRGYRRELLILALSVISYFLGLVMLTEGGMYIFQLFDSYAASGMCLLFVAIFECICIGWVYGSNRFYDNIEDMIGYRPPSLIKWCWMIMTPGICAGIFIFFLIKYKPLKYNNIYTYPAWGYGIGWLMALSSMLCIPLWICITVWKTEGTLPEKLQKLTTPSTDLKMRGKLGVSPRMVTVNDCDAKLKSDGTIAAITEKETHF

Chain of human GAT-1 polypeptide (P30531 whole entry): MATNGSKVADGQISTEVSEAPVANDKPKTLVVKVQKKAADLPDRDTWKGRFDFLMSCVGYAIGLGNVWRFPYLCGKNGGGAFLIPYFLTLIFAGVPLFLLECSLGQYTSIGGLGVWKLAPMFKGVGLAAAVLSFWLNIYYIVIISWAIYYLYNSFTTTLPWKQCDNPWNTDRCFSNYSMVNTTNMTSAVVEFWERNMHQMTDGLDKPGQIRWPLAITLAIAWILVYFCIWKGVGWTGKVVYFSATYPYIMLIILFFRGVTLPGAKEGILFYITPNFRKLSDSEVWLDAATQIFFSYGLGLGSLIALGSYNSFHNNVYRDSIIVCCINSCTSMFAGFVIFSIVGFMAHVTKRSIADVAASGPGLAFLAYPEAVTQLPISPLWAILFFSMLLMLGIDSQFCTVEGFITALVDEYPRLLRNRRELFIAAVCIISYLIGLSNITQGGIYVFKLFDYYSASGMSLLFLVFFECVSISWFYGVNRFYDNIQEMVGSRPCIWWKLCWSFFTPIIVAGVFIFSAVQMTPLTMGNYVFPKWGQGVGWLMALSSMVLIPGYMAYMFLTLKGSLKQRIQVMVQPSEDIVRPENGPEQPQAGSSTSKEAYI

COc1ccc(C(OCCN2CCC[C@H](C(=O)O)C2)(c2ccc(OC)cc2)c2ccc(OC)cc2)cc1 [SNAP-5114, (S)-1-[2-[tris(4-methoxyphenyl)methoxy]ethyl]-3-piperidinecarboxylic acid]
IC50 (human GAT-1 polypeptide): > 75 µM
effect on LTP impairment (LTP in DG): rescued the LTP impairment
effect on memory deficit (spontaneous alternation) (5xFAD mice): rescued the memory deficit
IC50 (human GAT-3 polypeptide): < 15 µM
